Experimental data published in patent US20030186345A1, “Macromolecular enzyme substrates” (priority 2003, published 2003).
Values belong to the molecule of their own block, whether it stands above or below them. *1 amine or outer side, *2 acyl side, *3 side chain or, on linkers, in order; H or OH if unused. Where a SMILES comes first, the peptide text is derived from it. [ ]: non-standard residue; d: D form. The star is where a group is joined. pNA = O=[N+]([O-])c1ccc(N*)cc1; Suc = O=C(CCC(=O)[*:2])[*:1]

How the values were obtained:
thrombin [1] = biological target: T1, thrombin (Homo sapiens, UniProt P00734); assay: Cleavage of pNA substrates by thrombin, kinetic parameters; assay type: biochemical; set-up: Human thrombin, bovine chymotrypsin; purchased Sigma Chemical Co. (St. Louis, Mo.); details: 37° C.; means of triplicates
Method: Measurements of protease activity at 25° C. or 37° C. were performed and analyzed as previously described (Hortin and Trimpe, J. Biol. Chem. 266:6866-6871, 1991) with a Cobas FARA analyzer (Roche Diagnostic Systems, Somerville, N.J.). […] Kinetic parameters were calculated from initial rates of reactions using Lineweaver-Burke plots. […] These reactions were performed in 100 mM tris(hydroxymethyl)-aminomethane pH 7.8 with 10 mm CaCl2. Substrate concentration were determined by absorbance at 342 nm, using an extinction coefficient of 8,260 mol^−1 and several concentrations were confirmed by absorbance measures at 405 or 410 nm after substrate hydrolysis, with extinction coefficient of 9,900 or 8,600 mol^−1, respectively, for the p-nitroaniline product (Lottenberg and Jackson, Biochim. Biophys. Acta 742:558-564, 1983). Molar concentration of chymotrypsin was determined by active site titration with p-nitrophenyl guanidinobenzoate and thrombin concentrations by titration with highly purified hirudin.

trypsin = biological target: T2, trypsin (Bos taurus, UniProt P00760); assay: Inhibition of substrate cleavage by α2-macroglobulin, trypsin; assay type: biochemical, bovine; details: excess inhibitor
T2 construct: purchased Worthington Biochemicals Co. (trypsin); Calbiochem (α2-macroglobulin)
T2 sequence (P00760 24-246): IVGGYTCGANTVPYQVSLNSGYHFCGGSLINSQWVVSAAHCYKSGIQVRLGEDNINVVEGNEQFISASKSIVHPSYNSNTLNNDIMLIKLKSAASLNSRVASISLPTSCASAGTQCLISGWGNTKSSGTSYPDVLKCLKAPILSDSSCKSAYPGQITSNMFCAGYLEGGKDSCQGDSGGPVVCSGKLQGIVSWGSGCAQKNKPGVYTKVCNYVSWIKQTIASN
Method: (§2) Measurements of protease activity at 25° C. or 37° C. were performed and analyzed as previously described (Hortin and Trimpe, J. Biol. Chem. 266:6866-6871, 1991) with a Cobas FARA analyzer (Roche Diagnostic Systems, Somerville, N.J.). […] Kinetic parameters were calculated from initial rates of reactions using Lineweaver-Burke plots. […] These reactions were performed in 100 mM tris(hydroxymethyl)-aminomethane pH 7.8 with 10 mm CaCl2. Substrate concentration were determined by absorbance at 342 nm, using an extinction coefficient of 8,260 mol^−1 and several concentrations were confirmed by absorbance measures at 405 or 410 nm after substrate hydrolysis, with extinction coefficient of 9,900 or 8,600 mol^−1, respectively, for the p-nitroaniline product (Lottenberg and Jackson, Biochim. Biophys. Acta 742:558-564, 1983). […] Trypsin concentration was estimated based on weight, assuming 100% activity. For studies of trypsin and thrombin, α2-macro-globulin was pretreated with a 200-fold molar excess of p-amidinophenylmethyl-sulfonylfluoride in order to inactivate any protease trapped within the inhibitor and left at 4° C. for 72 hours before use to allow complete decay of the sulfonylfluoride.

thrombin [2] = biological target: T1, thrombin; assay: Inhibition of substrate cleavage by α2-macroglobulin, thrombin; assay type: biochemical; set-up: Human thrombin, bovine chymotrypsin; purchased Sigma Chemical Co. (thrombin); Calbiochem (α2-macroglobulin); details: excess inhibitor
Method: as §2

salivary amylase [3] = biological target: T3, salivary amylase (Homo sapiens, UniProt P0DUB6); assay: Amylase assay, Km determination, salivary amylase; assay type: biochemical; details: 37° C.; HEPES buffer pH 7.15
T3 construct: purchased Sigma (St. Louis, Mo.)
T3 sequence (P0DUB6 16-511): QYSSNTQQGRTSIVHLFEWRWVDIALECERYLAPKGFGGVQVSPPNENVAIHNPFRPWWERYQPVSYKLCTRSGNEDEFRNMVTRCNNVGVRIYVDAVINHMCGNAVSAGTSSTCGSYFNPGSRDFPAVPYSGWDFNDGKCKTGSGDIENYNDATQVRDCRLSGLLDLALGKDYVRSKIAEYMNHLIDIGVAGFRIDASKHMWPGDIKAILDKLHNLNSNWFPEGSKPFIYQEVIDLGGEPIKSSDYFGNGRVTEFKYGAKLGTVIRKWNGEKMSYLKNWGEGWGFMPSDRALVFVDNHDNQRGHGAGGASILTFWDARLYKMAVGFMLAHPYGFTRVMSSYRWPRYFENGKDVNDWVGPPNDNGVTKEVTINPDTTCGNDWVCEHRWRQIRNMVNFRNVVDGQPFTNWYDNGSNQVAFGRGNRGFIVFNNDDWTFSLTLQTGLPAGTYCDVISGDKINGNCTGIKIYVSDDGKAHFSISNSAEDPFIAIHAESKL
Method: (§1) Amylase assays using oligosaccharide substrates were automated using a Cobas Fara analyzer (Roche, Basel, Switzerland). Unless indicated, assay temperature was 37° C., and absorbance changes were measured at 405 nm every minute over a 20 minute period. Assay buffer was either 52.5 mmol/L 4-(2-hydroxyethyl)-1-piperazine-ethanesulfonic acid (HEPES) buffer, pH 7.15, 87 mmol/L sodium chloride, 12.6 mmol/L magnesium chloride, 0.075 mmol/L calcium chloride (HEPES buffer) or 50 mmol/L MES, pH 6.0, 350 mmol/L sodium chloride, 6 mmol/L calcium acetate, 900 mmol/L KSCN (MES buffer). Amylases were diluted into assay buffer containing 1 mg/mL rabbit albumin. Final reaction volumes were 200 μL and consisted of 3 solutions, R1, R2, and R3. […] Depending upon the assay, R2 and R3 contained either amylase or substrate. R1 and R2 solutions were mixed for 10 seconds prior to the addition of R3. For immunoinhibition studies, antibodies were preincubated with amylase (R2) for 30 minutes at room temperature prior to the addition of substrate (R3). Unless indicated, final concentrations of MABs were 10 mg/L. Reaction blanks were determined by measuring the absorbance of substrate or enzyme alone at 405 nm. When EtG7pNP or mPEG-EtG7pNP were used as substrates, α-glucosidase was included in the blank measurement. Differences between the test samples and reagent blanks were determined. Activity of stock solutions of amylase was based on activity measured with a Hitachi 917 analyzer using a Roche kit (Cat. No 1876473) (Indianapolis, Ind.) which uses EtG7pNP as the substrate. For Km determinations, 4 or 5 different substrate concentrations (0.05 mmol/L to 6 mmol/L) with salivary (4-20 U/L) or pancreatic (4-40 U/L) amylase were used.

pancreatic amylase [4] = biological target: T4, pancreatic amylase (Homo sapiens, UniProt P04746); assay: Amylase assay, Km determination, pancreatic amylase; assay type: biochemical; details: 37° C.; HEPES buffer pH 7.15
T4 construct: purchased Scripps Laboratories (San Diego, Calif.)
T4 sequence (P04746 16-511): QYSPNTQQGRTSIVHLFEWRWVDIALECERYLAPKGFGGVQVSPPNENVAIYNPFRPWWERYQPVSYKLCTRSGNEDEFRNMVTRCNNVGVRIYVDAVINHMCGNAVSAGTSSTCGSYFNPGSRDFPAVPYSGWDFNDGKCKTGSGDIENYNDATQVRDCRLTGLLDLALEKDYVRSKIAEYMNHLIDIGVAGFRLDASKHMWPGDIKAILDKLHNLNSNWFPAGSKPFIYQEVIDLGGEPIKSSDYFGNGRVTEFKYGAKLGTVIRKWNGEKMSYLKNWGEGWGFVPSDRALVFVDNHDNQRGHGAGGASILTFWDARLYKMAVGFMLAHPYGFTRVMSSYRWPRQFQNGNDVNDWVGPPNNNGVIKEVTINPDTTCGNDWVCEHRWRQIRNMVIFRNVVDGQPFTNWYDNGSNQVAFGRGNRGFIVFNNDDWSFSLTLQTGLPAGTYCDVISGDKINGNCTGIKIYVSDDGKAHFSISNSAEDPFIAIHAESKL
Method: as §1, with “Assay buffer was either 52.5 mmol/L 4-(2-hydroxyethyl)-1-piperazine-ethanesulfonic acid (HEPES) buffer, pH 7.15, 87 mmol/L sodium chloride, 12.6 mmol/L magnesium chloride, 0.075 mmol/L calcium chloride (HEPES buffer) or 50 mmol/L MES, pH 6.0, 350 mmol/L sodium chloride, 6 mmol/L calcium acetate, 900 mmol/L KSCN (MES buffer).” left out

salivary amylase [5] = biological target: T3, salivary amylase; assay: Immunoinhibition by MABs, salivary amylase, oligosaccharide substrates; assay type: biochemical; details: salivary isoenzyme, 20 U/I (G5, G7 substrates) or 600 U/I (G3 substrates), 100% = no MAB
Method: as §1
When both MABs were used, MAB 88E8 concentrations were varied in the presence of 10 mg/L MAB 66C7. At an antibody concentration of 10 mg/L, MAB 88E8 inhibits 98% of salivary amylase activity in HEPES buffer and 34% of salivary amylase activity in MES buffer. MAB 66C7 increases salivary amylase activity in HEPES buffer and has no effect on salivary amylase activity in MES buffer. Using a mixture of MABs 88E8 and 66C7 at concentrations of […], >99% of salivary amylase activity is inhibited in HEPES buffer and 73% of salivary amylase activity is inhibited in MES buffer. When the pH of the MES buffer was increased from 6.0 to 6.5 and the concentration of KSCN was decreased from 900 mmol/L to 300 mmol/L, >97% of salivary amylase activity was inhibited by MAB 88E8.

pancreatic amylase [6] = biological target: T4, pancreatic amylase; assay: Immunoinhibition by MABs, pancreatic amylase, oligosaccharide substrates; assay type: biochemical; details: pancreatic isoenzyme, 40 U/I (G5, G7 substrates) or 400 U/I (G3 substrates), 100% = no MAB
Method: as §1

chymotrypsin = chymotrypsin (Bos taurus, UniProt P00766); assay: Inhibition of substrate cleavage by α2-macroglobulin, chymotrypsin
Method: Measurements of protease activity at 25° C. or 37° C. were performed and analyzed as previously described (Hortin and Trimpe, J. Biol. Chem. 266:6866-6871, 1991) with a Cobas FARA analyzer (Roche Diagnostic Systems, Somerville, N.J.). […] Kinetic parameters were calculated from initial rates of reactions using Lineweaver-Burke plots. […] These reactions were performed in 100 mM tris(hydroxymethyl)-aminomethane pH 7.8 with 10 mm CaCl2. Substrate concentration were determined by absorbance at 342 nm, using an extinction coefficient of 8,260 mol^−1 and several concentrations were confirmed by absorbance measures at 405 or 410 nm after substrate hydrolysis, with extinction coefficient of 9,900 or 8,600 mol^−1, respectively, for the p-nitroaniline product (Lottenberg and Jackson, Biochim. Biophys. Acta 742:558-564, 1983). Molar concentration of chymotrypsin was determined by active site titration with p-nitrophenyl guanidinobenzoate and thrombin concentrations by titration with highly purified hirudin. Trypsin concentration was estimated based on weight, assuming 100% activity. For studies of trypsin and thrombin, α2-macro-globulin was pretreated with a 200-fold molar excess of p-amidinophenylmethyl-sulfonylfluoride in order to inactivate any protease trapped within the inhibitor and left at 4° C. for 72 hours before use to allow complete decay of the sulfonylfluoride.

[7] = tested on: C[C@H](NC(=O)CCC(=O)O)C(=O)N[C@@H](C)C(=O)N1CCC[C@H]1C(=O)N[C@@H](Cc1ccccc1)C(=O)Nc1ccc([N+](=O)[O-])cc1; assay: purified protein, by the assay type; details: other: 37° C., means of triplicates, pH 7.8
20S proteasomes = biological target: T5, 20S proteasomes (Methanosarcina thermophila, UniProt Q9P992); assay: Substrate cleavage by 20S proteasomes; assay type: biochemical
T5 construct: purchased Calbiochem (La Jolla, Calif.); host or cells: Escherichia coli
T5 sequence (Q9P992 10-210): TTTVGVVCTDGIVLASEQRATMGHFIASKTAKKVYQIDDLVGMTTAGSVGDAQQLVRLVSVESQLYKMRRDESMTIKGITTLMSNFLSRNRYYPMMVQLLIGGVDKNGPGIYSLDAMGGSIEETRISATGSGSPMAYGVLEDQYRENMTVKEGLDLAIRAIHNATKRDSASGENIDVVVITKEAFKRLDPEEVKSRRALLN
T5 sequence (Q59565 1-247 partner): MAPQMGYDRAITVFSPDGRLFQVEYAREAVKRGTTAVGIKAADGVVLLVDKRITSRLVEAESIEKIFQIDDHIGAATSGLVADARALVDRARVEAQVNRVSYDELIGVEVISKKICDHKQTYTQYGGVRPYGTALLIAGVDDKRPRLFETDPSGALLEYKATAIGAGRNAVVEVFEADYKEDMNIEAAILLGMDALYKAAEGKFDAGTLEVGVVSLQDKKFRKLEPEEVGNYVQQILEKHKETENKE
Method: Enzyme assays. Assays of proteasome activity were performed at 37° C. unless otherwise indicated. […] Reactions were in a buffer consisting of 100 mM Tris(hydroxymethyl)aminomethane, pH 7.2 with 1 mM dithiothreitol.

Molecule: CC(=O)N[C@H](Cc1ccccc1)C(=O)N1CCCC[C@H]1C(=O)N[C@@H](CCCNC(=N)N)C(=O)Nc1ccc([N+](=O)[O-])cc1 [Ac-D-Phe-Pip-Arg-pNA]
Km (thrombin [1]): 23 µM | kcat (thrombin [1]): 3.0 S^−1

Molecule: CC[C@@H](C)[C@@H](N)C(=O)N1CCC[C@H]1C(=O)N[C@@H](CCCNC(=N)N)C(=O)Nc1ccc([N+](=O)[O-])cc1 [D-Ile-Pro-Arg-pNA] (H-[dI]-Pro-Arg-pNA)
Inhibition of trypsin activity by excess α2-macroglobulin (trypsin): 40-50% | Km (thrombin [1]): 12 µM | kcat (thrombin [1]): 105 S^−1

Molecule: N=C(N)NCCC[C@H](NC(=O)[C@@H]1CCCCN1C(=O)[C@H](N)Cc1ccccc1)C(=O)Nc1ccc([N+](=O)[O-])cc1 [D-Phe-Pip-Arg-pNA]
Km (thrombin [1]): 6.1 µM | kcat (thrombin [1]): 65 S^−1 | Inhibition of thrombin activity by excess α2-macroglobulin (thrombin [2]): 40-50%

Km (salivary amylase [3]): 400 µM | Km (pancreatic amylase [4]): 280 µM | % activity with MAB 88E8 + 66C7 (salivary amylase [5]): 2% | % activity with MAB 66C7 (salivary amylase [5]; MAB 10 mg/L): 105% | % activity with MAB 88E8 (salivary amylase [5]; MAB 10 mg/L): 6% | % activity with MAB 88E8 + 66C7 (pancreatic amylase [6]): 95% | % activity with MAB 66C7 (pancreatic amylase [6]; MAB 10 mg/L): 103% | % activity with MAB 88E8 (pancreatic amylase [6]; MAB 10 mg/L): 101%
Molecule: O=[N+]([O-])c1ccc(OC2OC(CO)C(OC3OC(CO)C(OC4OC(CO)C(OC5OC(CO)C(OC6OC(CO)C(O)C(O)C6O)C(O)C5O)C(O)C4O)C(O)C3O)C(O)C2O)cc1 [Substrate G5pNP, p-nitrophenyl-α-D-maltopentaoside]

Molecule: C[C@H](NC(=O)CCC(=O)O)C(=O)N[C@@H](C)C(=O)N1CCC[C@H]1C(=O)N[C@@H](Cc1ccccc1)C(=O)Nc1ccc([N+](=O)[O-])cc1 [Suc-Ala-Ala-Pro-Phe-pNA, succinyl-Ala-Ala-Pro-Phe-pNA] (Suc-AAPF-pNA)
Maximal inhibition of chymotrypsin activity by excess α2-macroglobulin (chymotrypsin; increasing α2-macroglobulin added to a fixed amount of chymotrypsin): about 60%

Molecule: bovine chymotrypsin (Bos taurus)
Km [7]: 40 µM | kcat [7]: 120 s⁻¹ | kcat/Km [7]: 3e+06 M⁻¹ s⁻¹

Molecule: succinyl-Ala-Ala-Phe-p-nitroanilide [Suc-Ala-Ala-Phe-pNA]
Rate of substrate cleavage by 20s proteasomes (20S proteasomes; each substrate at 1 mM, 37° C., mean ± SD): 0.0061 ± 0.0001 ΔA405/10 min | Rate of cleavage greater than Ala-Ala-Phe-pNA (20S proteasomes; substrate 0.5-3 mM, 30-50° C.): 50-100% | Rate Plus α2-M (chymotrypsin; chymotrypsin 2.5 μg/ml, 0.5 mM substrate, after incubation with excess α2-macroglobulin (250 μ/ml), means ± SD): 12.3 ± 0.1 µmol/L/min | Rate Minus α2-M (chymotrypsin; chymotrypsin 2.5 μg/ml, 0.5 mM substrate, before incubation with α2-macroglobulin, means ± SD): 21.7 ± 0.2 µmol/L/min | Inhibition of substrate cleavage by α2-macroglobulin (chymotrypsin; chymotrypsin 2.5 μg/ml, 0.5 mM substrate, excess α2-macroglobulin): 43%
